Measurements published in US5736557A, “N,N-bis (quinolin-4-yl)-diamine derivatives, their preparation and their use as antimalarials” (Hoffman-La Roche, Inc., priority 1994, dated 1998).
Values after ≈ are worked out from the molar mass of the structure shown. Where two headings read alike, the source gives them in different places.

Legend:
Plasmodium berghei = experiment: Activity against Plasmodium berghei in vivo in mice; set-up: species or system Plasmodium berghei (strain ANKA) in mice; details: for ED50: read-out: ED50 po
Description: Test Method for the Determination of the Activity Against Plasmodium berghei in vivo
The preparations are tested on mice infected with malaria pathogens (Plasmodium berghei). Male albino mice (IBM:MORO(SPF), FUELLINSDORF) weighing about 25 g are used as the test animals. They are kept in climatized rooms at 21°-22° C. in groups of 5 animals per cage. They receive ad libitum a diet feed with a low PABA content (NAFAG FUTTER .COPYRGT. No. 9009 PAB-45, PABA content 45 mg/kg) and drinking water. On the first day of the test (DO) the test animals are infected with Plasmodium berghei (strain ANKA). For this there is used heparinized blood of a donor mouse with about 30% parasitemia, which is diluted with physiological saline such that it contains 10^8 parasitized erythrocytes per ml. 0.2 ml of this suspension is injected intravenously (i.v.) into the mice to be treated and into the control mice. In untreated control animals the parasitemia normally reaches 30-40% on the third day after the infection (D+3) and the test animals die between days +5 and +7.
The substances to be tested are dissolved or suspended in distilled water or in a mixture of 7% Tween 80, 3% alcohol (96%) and water. Usually, 0.25 ml of this solution or suspension is administered once subcutaneously and perorally to groups of 5 test animals. Treatment is effected 24 hours after the infection. 10 control animals are treated in the same manner with solvent or suspension medium per test.
All substances are tested in a first test in a single dosage of 10 mg/kg. Only those substances which in this test (10 mg/kg) have shown a parasitaemia reduction of 90% are used for the titration. Suitable dilutions of the test substance can be used to obtain an accurate titration of the activity.
48 hours after the treatment (D+3) blood smears are prepared from all animals using blood from tail veins and are stained with giemsa. The average erythrocyte infection rate (parasitemiea in %) in the control groups as well as in the groups which have been treated with the test compounds is determined by counting under a microscope. The difference in the average values of the infection rates of control group (100%) and treated groups is calculated and expressed as a percentage reduction (GI%). The ED50 or ED90 is determined mathematically by means of the JMP programme (nonlinear fit). The ED50 (ED90) in mg/kg is that dose which after single administration reduces the average erythrocyte infection rate by 50% (90%) in comparison to the control group.

[1] = system: chloroquine-resistant strains of the human-pathogenic Plasmodium falciparum; experiment: Growth inhibition of chloroquine-resistant Plasmodium falciparum strains in vitro; assay type: cell-based; details: for IC50: Plasmodium falciparum; for Resistance index: ratio of average IC50 values for resistant strains and average values for sensitive strains
Description: (§1) Test Method for the Determination of the Activity Against Plasmodium falciparum in vitro
(§2) The preparations are tested on intraerythrocytary stages of Plasmodium falciparum from asynchronous cultures according to the method of Desjardin et al. (Desjardins, R. E. et al: Quantitative assessment of antimalarial activity in vitro by a semiautomated microdilution technique. Antimicrob. Agents Chemother. 16, 710-718, (1979)).
(§3) The culture medium consists of RPMI 1640 with the addition of 25 mM HEPES, 25 mM NaHCO3, 100 μg/ml neomycin and […] (A^+). Human-A^+ erythrocytes are used as the Plasmodium falciparum host cells. The parasites are maintained at 37° C. in an atmosphere of 3% O2, 4% CO2, 9:3% N2 and 95% relative humidity.
(§4) In order to determine the activity, the preparations are dissolved in dimethyl sulphoxide, pre-diluted in the culture medium to a suitable starting concentration and subsequently titrated-out on to microtitre plates in the 2nd stage over 6-7 steps. After the addition of the parasite culture (0.7% parasitemia in 2.5% erythrocyte suspension) the test plates are incubated under the conditions given above for 48 h-72 h. The parasite growth in the different preparation concentrations is determined using [G--^3 H]-hypoxanthin incorporation compared to untreated control cultures on the same test plates. The 50% growth inhibition (IC50) is calculated according to logit regression analysis from the resulting dosage-activity curve.
(§5) The preparations are tested on at least one chloroquine-resistant and one chloroquine-sensitive Plasmodium falciparum strain. Additional sensitive and resistant strains are included for futher characterization.

[2] = system: chloroquine-sensitive strains of the human-pathogenenic Plasmodium falciparum; experiment: Growth inhibition of chloroquine-sensitive Plasmodium falciparum strains in vitro; assay type: cell-based
Description: as §1, §2, §3, §4, §5

[3] = po, percentage parasitemia reduction, single peroral dose 10 mg/kg, mice, read-out: GI % at 10 mg/kg po
[4] = sc, percentage parasitemia reduction, single subcutaneous dose 10 mg/kg, mice, read-out: GI % at 10 mg/kg sc
[5] = read-out: IC50 growth inhibition, strain K1, chloroquine-resistant
[6] = NF54, strain NF54, chloroquine-sensitive, read-out: IC50 growth inhibition
[7] = read-out: IC50 growth inhibition, strain 7G8, chloroquine-resistant
[8] = read-out: IC50 growth inhibition, strain Indo, chloroquine-resistant
[9] = read-out: IC50 growth inhibition, strain ItG2F6, chloroquine-resistant
[10] = read-out: IC50 growth inhibition, strain RFCF3, chloroquine-resistant
[11] = read-out: IC50 growth inhibition, strain W2 Mef, chloroquine-resistant
[12] = read-out: IC50 growth inhibition, strain W2, chloroquine-resistant
[13] = HB3, strain HB3, chloroquine-sensitive, read-out: IC50 growth inhibition
[14] = strain FCH5C2, chloroquine-sensitive, read-out: IC50 growth inhibition
[15] = strain RFMEF3, chloroquine-sensitive, read-out: IC50 growth inhibition
[16] = strain Ro73, chloroquine-sensitive, read-out: IC50 growth inhibition

Row | SMILES | inhibition in vivo at 10 mg/kg (Plasmodium berghei; [3]) | inhibition in vivo at 10 mg/kg (Plasmodium berghei; [4]) | IC50 [1, 5] | IC50 [2, 6] | IC50 [1, 7] | IC50 [1, 8] | IC50 [1, 9] | IC50 [1, 10] | IC50 [1, 11] | Resistance index [1] | IC50 [1, 12] | IC50 [2, 13] | IC50 [2, 14] | IC50 [2, 15] | IC50 [2, 16] | further results
1 | Clc1ccc2c(N[C@H]3CCC[C@H](Nc4ccnc5cc(Cl)ccc45)C3)ccnc2c1 (relative stereo) [Example 7, ±-trans-N,N'-Bis-(7-chloroquinolin-4-yl)-cyclohexane-1,3-diamine] | 97% | 99% | 10.5 ng/mL (≈ 0.024 µM) | 10.7 ng/mL (≈ 0.0245 µM) |  |  |  |  |  |  |  |  |  |  |  | 
2 | CCN(CC)CCCC(C)Nc1ccnc2cc(Cl)ccc12 (centres unmarked) [Chloroquine, reference compound] |  |  | 114 ng/mL (≈ 0.356 µM) |  | 81 ng/mL (≈ 0.253 µM) | 52 ng/mL (≈ 0.163 µM) | 68 ng/mL (≈ 0.213 µM) | 130 ng/mL (≈ 0.406 µM) | 79 ng/mL (≈ 0.247 µM) | 8.7 |  |  |  |  |  | ED50 (Plasmodium berghei; po): 2 mg/kg; inhibition in vivo at 10 mg/kg (Plasmodium berghei; po, read-out: GI % at 10 mg/kg po): 99.9%; inhibition in vivo at 10 mg/kg (Plasmodium berghei; sc, read-out: GI % at 10 mg/kg sc): 99.9%; IC50 ([2]; HB3, read-out: IC50 growth inhibition, strain HB3, chloroquine-sensitive): 11.3 ng/mL (≈ 0.0353 µM); IC50 ([2]; NF54, read-out: IC50 growth inhibition, strain NF54, chloroquine-sensitive): 7.6 ng/mL (≈ 0.0238 µM); IC50 ([2]; read-out: IC50 growth inhibition, strain FCH5C2, chloroquine-sensitive): 12.2 ng/mL (≈ 0.0381 µM); IC50 ([2]; read-out: IC50 growth inhibition, strain RFMEF3, chloroquine-sensitive): 14.2 ng/mL (≈ 0.0444 µM); IC50 ([2]; read-out: IC50 growth inhibition, strain Ro73, chloroquine-sensitive): 8 ng/mL (≈ 0.025 µM)
3 | Clc1ccc2c(NCc3ccccc3CNc3ccnc4cc(Cl)ccc34)ccnc2c1 [Example 1, (7-Chloroquinolin-4-yl)-[2-(7-chloroquinolin-4-yl-aminomethyl)-benzyl]-amin] | 62% | 97% | 6.9 ng/mL (≈ 0.015 µM) | 10.2 ng/mL (≈ 0.0222 µM) | 7 ng/mL (≈ 0.0152 µM) | 6.9 ng/mL (≈ 0.015 µM) | 4.7 ng/mL (≈ 0.0102 µM) | 5.4 ng/mL (≈ 0.0118 µM) | 4.9 ng/mL (≈ 0.0107 µM) | 0.9 | 5.8 ng/mL (≈ 0.0126 µM) | 7.5 ng/mL (≈ 0.0163 µM) | 6.6 ng/mL (≈ 0.0144 µM) | 6.5 ng/mL (≈ 0.0141 µM) | 3.6 ng/mL (≈ 0.00784 µM) | 
4 | Clc1ccc2c(NCc3cccc(CNc4ccnc5cc(Cl)ccc45)c3)ccnc2c1 [Example 2, (7-Chloroquinolin-4-yl)-[3-(7-chloroquinolin-4-yl-aminomethyl)-benzyl]-amine] | 87% | 99% | 17 ng/mL (≈ 0.037 µM) | 10.3 ng/mL (≈ 0.0224 µM) | 13.9 ng/mL (≈ 0.0303 µM) | 15.8 ng/mL (≈ 0.0344 µM) | 19 ng/mL (≈ 0.0414 µM) | 26.3 ng/mL (≈ 0.0573 µM) | 17 ng/mL (≈ 0.037 µM) | 2.8 | 100 ng/mL (≈ 0.218 µM) | 8.9 ng/mL (≈ 0.0194 µM) | 12.5 ng/mL (≈ 0.0272 µM) | 7.8 ng/mL (≈ 0.017 µM) | 13.3 ng/mL (≈ 0.029 µM) | 
5 | Clc1ccc2c(NCc3ccc(CNc4ccnc5cc(Cl)ccc45)cc3)ccnc2c1 [Example 3, (7-Chloroquinolin-4-yl)-[4-(7-chloroquinolin-4-yl-aminomethyl)-benzyl]-amine] | 99.9% | 99.9% | 9.1 ng/mL (≈ 0.0198 µM) | 9.6 ng/mL (≈ 0.0209 µM) | 6.8 ng/mL (≈ 0.0148 µM) | 2.9 ng/mL (≈ 0.00631 µM) | 7.9 ng/mL (≈ 0.0172 µM) | 5.7 ng/mL (≈ 0.0124 µM) | 9.7 ng/mL (≈ 0.0211 µM) | 0.7 | 5 ng/mL (≈ 0.0109 µM) | 4.6 ng/mL (≈ 0.01 µM) | 12.7 ng/mL (≈ 0.0276 µM) | 12.5 ng/mL (≈ 0.0272 µM) | 7.4 ng/mL (≈ 0.0161 µM) | ED50 (Plasmodium berghei; po, single peroral administration, mice): 2.5 mg/kg
